Where two headings read alike, the source gives them in different places. One block for each compound: values may come before it.
What was measured:
[1] = Pharmacokinetics following a single dose in rat (1 mg/kg iv, 3 mg/kg oral), LC-MS/MS, one-compartment model; assay type: in vivo; conditions: for bioavailability / clearance / Vd / half-life: plasma; for bioavailability: 3 mg/kg oral in 1% CMC vs 1 mg/kg iv, one-compartment model, read-out: F (%) oral bioavailability; for clearance / Vd / half-life: iv, 1 mg/kg; for Vd: read-out: Vss (L/kg) volume of distribution; for AUC(0-t): blood, single oral dose 3 mg/kg in 1% CMC, Tables 7-9, read-out: Exposure (min · ng/ml), oral exposure AUC 0-t (converted)
Method: Compounds were administered as a single dose (either 1 mg/kg bodyweight in 5% DMSO via the intravenous route or 3 mg/kg in 1% carboxymethylcellulose via the oral route) to three adult rats (using different rats for each compound and each route of administration).
Blood was then sampled at various time points (including just prior to dose administration) out to 24 hrs post dose, and the level of the various compounds was assessed using a validated LC-MS/MS assay. Briefly, 3-5 μl of the deproteinised sample was applied to a Waters Atlantis (C18 20×2.1 mm, 3 μm bead size) reverse phase chromatography column equilibrated in 0.1% formic acid in 95:5 water:actetonitrile. Over 3.5 minutes bound material was gradient eluted reaching 0.1% formic acid in 5:95 water:acetonitrile, followed by a step gradient back to 0.1% formic acid in 95:5 water:acetonitrile. The column eluent was then directed to an Applied Biosystems API 4000/3200 QTrap MS/MS mass spectrometer, with a TurboIonspray™ ion source operating in positive ion mode. The interface temperature was set at 650° C., with a 40 ms dwell time for each MRM transition, monitoring the following ions:
The internal standard in each determination was the related compound (S)-3-(2′,2′-dimethyl-propanoylamino)-caprolactam, which was spiked into the sample prior to deproteinization. The lower limit of quantitation (LLOQ) for this assay was 2.4 ng/ml for each compound except (I′), where it was 38.1 ng/ml.
Following LC-MS/MS analysis of each collected sample, the pharmacokinetic disposition of the compound was modelled using Kinetica software, a well known software package for such applications.
Compounds (VI) and (VII) were subject to pharmacokinetic analysis in rat using exactly the same protocols previous applied for compounds (I) through (V) in example 1.
We therefore subjected (VIII) to pharmacokinetic analysis in rat using exactly the same protocols previous applied for compounds (I′) through (VII) in examples 1 and 7.
The isolated (R)-enantiomer of (I) was therefore synthesised (exactly as described herein for the isolated (S)-enantiomer, but replacing the (S)-ornithine starting material with commercially available (R)-ornithine of high stereochemical purity), and the PK properties of this agent, in rat, was determined using the identical methodology described above (see Examples 1, 7 and 8).

[2] = Identification of the primary metabolites in pooled rat urine by LC-MS-MS; assay type: in vivo; conditions: single oral dose 3 mg/kg in 1% CMC, pooled urine over 24 hrs, qualitative
Method: (§1) Urine was collected from rats exposed to a single oral dose (3 mg/kg in 1% CMC) of each compound over a 24 hour period in metabolic cages. The pooled urine sample was then subjected to full scan mass spectral analysis, using the same LC-MS conditions as described in example 1 above. Further MS-MS analysis of the product ions was then performed, and likely fragmentations/re-arrangements assigned from the publicly available Metabolite ID database.
For the major metabolites, the assigned structures were confirmed by synthesis of authentic samples, using methods well known in the art, which were subject to LC-MS-MS analysis under the same conditions as the urine samples.
Note that metabolite ID studies provide only qualitative estimates of the relative amounts of the different metabolites present, and separately validated assays with appropriate internal standards would be required to quantitate each metabolite species.

[3] = Distribution of unchanged compound into tissues and urine 24 hrs after a single dose in rat; assay type: in vivo
Method: as §1
To provide a quantitative estimate of the degree of metabolism suffered by each of the compounds tested, the amount of unchanged parent compound in urine was measured using the same validated LC-MS assay described in example 1, using (S)-3-(2′,2′-dimethylpropanoylamino)-caprolactam as an internal standard. In addition, the level of compounds in various target tissues was also determined.

[4] = Stability in serum in vitro; assay type: in vitro ADME; conditions: human serum; 37° C.
From the text: As an approach to identifying such stable analogs, various derivatives of (S)-3-(undec-10-enoyl)-aminoglutarimide have been tested for their stability in serum.

[5] = Solubility as observed (water, dosing vehicle); assay type: physicochemical; conditions: 5% DMSO in saline
[6] = test system: LPS-induced TNF-α production; experiment: Sub-lethal LPS-induced endotoxemia in mice, serum TNF-α by ELISA; assay type: in vivo; conditions: for inhibition of LPS-induced TNF-α production (reference agents, previously shown): mice, dose not stated
Method: FIGS. 5A-5E show representative dose response curves for the inhibition of LPS induced TNF-α production in vivo in a murine model of sub-lethal endotoxemia. In each experiment, groups of six mice received pre-treatment with the five compounds (FIG. 5A: (II); FIG. 5B: (III); FIG. 5C: (V); FIG. 5D: (I′) and FIG. 5E: (IV)) at various doses, via either the oral route (circles) or subcutaneous route (triangles). 30-60 mins later, animals were challenged with LPS via the intraperitoneal route, and serum was prepared from a terminal bleed 3 hours later. The level of TNF-α in the blood was measured by ELISA, and the degree of inhibition of LPS-induced TNF-α production (calculated as the concentration of TNF-α in mice exposed to LPS minus the concentration of TNF-α in mice which received a sham exposure to endotoxin-free PBS) is shown on the Y-axis of each graph as the mean of six animals, with whiskers representing SEMs. The concentration of TNF-α in mice receiving LPS but no BSCI treatment was typically 5,000 to 6,000 pg/ml on average (compared to <10 pg/ml in unchallenged mice). The ED50 was estimated by linear interpolation of the presented graphs. The X-axis of each graph represents the dose of each compound administered to each mouse in the group in units of mg (1E-07 to 1).
In this assay, mice are given a non-specific pro-inflammatory challenge using bacterial endotoxin (LPS), and the extent of the systemic inflammatory response (measured by serum levels of the central pro-inflammatory cytokine TNF-α, which is essentially absent from the blood under normal conditions, but is rapidly elevated in response to a wide range of inflammatory stimuli). We have selected this model even though it is not, itself, a particularly close model of any human inflammatory disease condition, but because TNF-α is known to be important in very many diseases (including rheumatoid arthritis, autoimmune disorders, Crohn's Disease, atherosclerosis, asthma and many more). Consequently, agents which suppress TNF-α production are already used clinically (e.g. Enbrel™ and other anti-TNF-α antibody products) to treat a wide range of such diseases.
Mice (in groups of 6) were pretreated with various doses of each compound, either by the subcutaneous route 30 mins prior to LPS challenge, or by the oral route (via gavage) 60 mins prior to LPS. The mice were then challenged with an intraperitoneal injection of 750 μg of bacterial LPS and sacrificed 3 hours later. Serum was prepared from a terminal bleed by cardiac puncture, and the concentration of TNF-α is determined by ELISA (R&D Systems). In each experiment, a group of 6 mice receive no LPS to act as a negative control, and a second group receive only LPS (with no candidate inhibitor). […]

[7] = test system: chemokine-induced migration; conditions: read-out: ED50 inhibition of chemokine-induced migration in vitro; cited from earlier work
[8] = test system: leukocytes in BAL fluid; experiment: Ovalbumin-induced lung inflammation model of asthma, cell counts in BAL fluid; assay type: in vivo, Brown Norway rats; conditions: 30 mg/kg daily via the oral route
From the text: Bars represent mean cell counts, shown on the Y axis in units of 10^6 cells, for groups of […] with whiskers representing SEM; * p<0.01 versus ‘sensitised’ using Student's unpaired t-test assuming equal variance, with two tails). The horizontal line represents the average number of leukocytes present in BAL fluid from the lungs of unchallenged rats. All rats in the remaining three groups received the same sensitisation and challenge regimen, but were either treated with vehicle only (‘Sensitised’), or with compound (I′) at 0.3 mg/kg bodyweight or with monteleukast (‘Singulair™’) at 30 mg/kg bodyweight, all administered daily by oral gavage.
Adult Brown Norway rats (200-300 g body weight; n=10 per group) were sensitised by a single intraperitoneal injection of 0.1 mg Ovalbumin on day 0. Each rat then received an intratracheal challenge with a solution of 1% ovalbumin (w/v) on day 8, and with 2% ovalbumin (w/v) on days 15, 18 and 21. The animals were then sacrificed 3 hours after the final challenge on day 21. […]
On sacrifice, total lung leukocyate recruitment was assessed by performing a broncheoalveolar lavage (BAL) using 4 lots of 3 ml sterile phosphate-buffered saline introduced through a tracheal cannula. For each animal, the BAL washes were combined, and the total cell population counted (using a haemocytometer). […]

[9] = intravenous dosing 1 mg/kg, averaged across three rats, read-out: t1/2 (mins) dominant plasma half-life

- bioavailability ([1]; averaged across three rats): 5%
- clearance ([1]; averaged across three rats): 55 mL/min/kg
- Vd ([1]; averaged across three rats): 0.6 L/kg
- half-life [1, 9]: 11 min
- major metabolites / route of metabolism detected in urine [2]: cytochrome P450-mediated hydroxylation
Structure (SMILES): CC1(C(=O)N[C@H]2CCCCNC2=O)CCCCC1 [(III), 3-(1′-methylcyclohexylcarbonylamino)-caprolactam]

- Urine (ng/ml) unchanged parent compound ([3]; 24 hrs after a single oral dose 3 mg/kg in 1% CMC): 1010 ng/mL
- unchanged parent compound recovered in urine, % of the injected dose ([3]; single oral dose 3 mg/kg in 1% CMC, 24 hrs): less than 10%
Structure (SMILES): CC(C)(C)S(=O)(=O)N[C@H]1CCCCNC1=O [(IV), 3-(1′,1′-dimethylethylsulfonylamino)-caprolactam]
- major metabolites / route of metabolism detected in urine [2]: the major metabolite could not be identified

- time completely stable in serum [4]: at least 7 days
Structure (SMILES): C=CCCCCCCCCC(=O)[C@@H]1CCCNC1=O [(S)-3-(undec-10-enoyl)-tetrahydropyridin-2-one]

- AUC(0-t) [1]: 542 ng·h/mL
- bioavailability ([1]; averaged across three rats): 35%
- clearance ([1]; averaged across three rats): 31.1 mL/min/kg
- Vd ([1]; averaged across three rats): 0.7 L/kg
- half-life [1, 9]: 20 min
- half-life ([1]; read-out: plasma half-life): < 60 min
Structure (SMILES): O=C1NCCCC1NC(=O)C12CC3CC(CC(C3)C1)C2 (stereo not drawn) [(VII), 3-(adamanatane-1-carbonylamino)-tetrahydropyridin-2-one]

- AUC(0-t) [1]: 183 ng·h/mL
- bioavailability ([1]; averaged across three rats): 16%
- clearance ([1]; averaged across three rats): 40.3 mL/min/kg
- Vd ([1]; averaged across three rats): 1.95 L/kg
- half-life [1, 9]: 46 min
- half-life ([1]; read-out: plasma half-life): < 60 min
- solubility in iv dosing vehicle [5]: completely insoluble
Structure (SMILES): CCCCCCCCCCC(C)(C)C(=O)NC1CCCNC1=O (stereo not drawn) [Compound (VI), 3-(2′,2′-dimethyldodecanoylamino)-tetrahydropyridin-2-one]

Structure (SMILES): C=CCCCCCCCCC(=O)N[C@H]1CCC(=O)NC1=O [NR58,4, (S)-3-(undec-10-enoyl)-aminoglutarimide]
- fold less potent in vivo than 3-(2′,2′-dimethylpropanoylamino)-tetrahydropyridin-2-one ([6]; models of acute inflammation such as LPS-induced endotoxemia): at least 250 fold
- EC50 [7]: 5 nM

Structure (SMILES): C[C@@H]1C[C@H]2[C@@H]3CCC4=CC(=O)C=C[C@]4(C)[C@@]3(F)[C@@H](O)C[C@]2(C)[C@@]1(O)C(=O)CO [dexamethasone]
- inhibition of LPS-induced TNF-α production (reference agents, previously shown) [6]: at least 90%

Structure (SMILES): CC(C)(O)c1ccccc1CC[C@@H](SCC1(CC(=O)O)CC1)c1cccc(/C=C/c2ccc3ccc(Cl)cc3n2)c1 [monteleukast]
- effect on the number of leukocytes in the BAL washes [8]: significantly reduced the number of leukocytes in the BAL washes

Structure (SMILES): O=C1CCC(N2C(=O)c3ccccc3C2=O)C(=O)N1 (stereo not drawn) [thalidomide]
- inhibition of LPS-induced TNF-α production (reference agents, previously shown) [6]: about 60%
